Assay in all cases: Fluorometric Assay
Common to all, as to conditions: pH 7.4; 25 °C

For one assay, the target named is T1, Caspase-1 (Homo sapiens, UniProt P29466).
T1 sequence (P29466 whole entry): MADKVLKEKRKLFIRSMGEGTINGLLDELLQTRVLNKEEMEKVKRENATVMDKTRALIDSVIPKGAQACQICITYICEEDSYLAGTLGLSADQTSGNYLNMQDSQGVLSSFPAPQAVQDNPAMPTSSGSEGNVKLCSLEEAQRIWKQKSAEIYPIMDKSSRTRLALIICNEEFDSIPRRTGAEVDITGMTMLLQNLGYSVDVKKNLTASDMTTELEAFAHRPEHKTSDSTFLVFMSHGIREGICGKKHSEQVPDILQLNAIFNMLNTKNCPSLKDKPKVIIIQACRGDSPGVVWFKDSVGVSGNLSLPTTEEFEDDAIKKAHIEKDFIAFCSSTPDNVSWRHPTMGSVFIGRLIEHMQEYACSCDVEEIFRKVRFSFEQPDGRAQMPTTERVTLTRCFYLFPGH
As to the method: (§1) The effectiveness of compounds against the activity of human recombinant caspase-1-8 was measured using fluorometric assays. Assays were carried out in a 96-well flat bottom, polystyrene plates. […] Kinetic data were collected over a 15 min assay run at room temperature. IC50 values were calculated through a four parameter fit curve using the computer application SOFTmax PRO. Ki(apparent) values were calculated using the following equation: Ki(app) = IC50/(1 + [substrate]/Km).

The next assay deals with T2, Caspase-2 (Homo sapiens, UniProt P42575).
T2 sequence (P42575 whole entry): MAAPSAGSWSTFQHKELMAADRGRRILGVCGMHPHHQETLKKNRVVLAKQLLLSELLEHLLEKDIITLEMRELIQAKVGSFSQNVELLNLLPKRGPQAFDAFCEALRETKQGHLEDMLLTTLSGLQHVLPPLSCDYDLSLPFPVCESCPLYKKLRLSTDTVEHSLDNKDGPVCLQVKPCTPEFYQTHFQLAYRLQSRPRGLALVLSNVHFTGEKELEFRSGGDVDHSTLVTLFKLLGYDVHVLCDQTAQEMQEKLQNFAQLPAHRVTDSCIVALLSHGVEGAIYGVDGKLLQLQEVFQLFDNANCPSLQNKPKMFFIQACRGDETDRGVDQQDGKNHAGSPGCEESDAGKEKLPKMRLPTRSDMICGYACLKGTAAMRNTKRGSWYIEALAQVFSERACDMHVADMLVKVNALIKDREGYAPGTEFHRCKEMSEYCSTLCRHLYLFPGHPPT
As to the method:
as §1

The next assay concerns the target T3, Caspase-3 (Homo sapiens, UniProt P42574).
T3 sequence (P42574 whole entry): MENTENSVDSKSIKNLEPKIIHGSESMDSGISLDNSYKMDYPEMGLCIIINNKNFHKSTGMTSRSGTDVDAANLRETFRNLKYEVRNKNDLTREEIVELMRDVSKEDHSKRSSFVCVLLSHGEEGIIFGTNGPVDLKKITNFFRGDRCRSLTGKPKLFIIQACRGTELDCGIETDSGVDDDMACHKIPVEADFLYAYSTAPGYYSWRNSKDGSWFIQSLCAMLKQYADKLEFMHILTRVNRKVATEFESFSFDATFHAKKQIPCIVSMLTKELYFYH
As to the method:
as §1

The next assay addresses T4, Caspase-4 (Homo sapiens, UniProt P49662).
T4 sequence (P49662 whole entry): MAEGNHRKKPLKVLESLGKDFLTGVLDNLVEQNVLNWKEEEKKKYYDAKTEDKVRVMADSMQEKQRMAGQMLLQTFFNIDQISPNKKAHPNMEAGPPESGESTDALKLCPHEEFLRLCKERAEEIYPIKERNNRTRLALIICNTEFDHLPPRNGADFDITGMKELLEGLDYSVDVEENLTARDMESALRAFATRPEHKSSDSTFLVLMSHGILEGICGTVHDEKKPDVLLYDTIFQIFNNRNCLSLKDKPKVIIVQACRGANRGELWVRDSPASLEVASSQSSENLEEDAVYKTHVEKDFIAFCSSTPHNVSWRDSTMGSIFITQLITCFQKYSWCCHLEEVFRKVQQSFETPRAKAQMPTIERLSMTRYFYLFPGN
As to the method:
as §1

In a further assay the target is T5, Caspase-6 (Homo sapiens, UniProt P55212).
T5 sequence (P55212 whole entry): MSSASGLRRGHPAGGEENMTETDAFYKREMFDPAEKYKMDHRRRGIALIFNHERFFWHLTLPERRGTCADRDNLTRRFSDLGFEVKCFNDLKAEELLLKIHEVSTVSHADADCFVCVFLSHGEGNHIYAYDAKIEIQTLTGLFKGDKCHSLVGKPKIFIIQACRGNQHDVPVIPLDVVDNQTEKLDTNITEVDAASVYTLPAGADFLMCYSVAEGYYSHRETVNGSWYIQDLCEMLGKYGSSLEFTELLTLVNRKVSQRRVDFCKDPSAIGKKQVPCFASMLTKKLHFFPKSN
As to the method:
as §1

A further assay has as its target T6, Caspase-7 (Homo sapiens, UniProt P55210).
T6 sequence (P55210 whole entry): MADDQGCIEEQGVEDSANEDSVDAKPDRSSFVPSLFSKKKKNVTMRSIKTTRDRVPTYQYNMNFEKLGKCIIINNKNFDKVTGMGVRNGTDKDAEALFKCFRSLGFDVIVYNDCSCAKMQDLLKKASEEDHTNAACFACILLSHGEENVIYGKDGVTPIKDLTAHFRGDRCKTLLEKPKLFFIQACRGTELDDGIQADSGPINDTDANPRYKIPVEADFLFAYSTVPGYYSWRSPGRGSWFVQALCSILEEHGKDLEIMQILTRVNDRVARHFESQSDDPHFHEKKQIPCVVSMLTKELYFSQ
As to the method: as §1

A further assay deals with Caspase-8 (Homo sapiens, UniProt Q14790). As to the method:
as §1

Chain of Caspase-8 (Q14790 217-374 limits assumed): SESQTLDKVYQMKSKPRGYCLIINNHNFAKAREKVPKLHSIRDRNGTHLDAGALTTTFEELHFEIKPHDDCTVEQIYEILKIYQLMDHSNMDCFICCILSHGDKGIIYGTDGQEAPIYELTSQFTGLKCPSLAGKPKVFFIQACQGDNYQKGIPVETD
Chain of Caspase-8 (Q14790 385-479 limits assumed): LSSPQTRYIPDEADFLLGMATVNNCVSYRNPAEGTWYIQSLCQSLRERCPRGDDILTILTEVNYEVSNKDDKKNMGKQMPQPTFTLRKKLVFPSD

On to `O=C(O)C[C@H](NC(=O)c1ccc(CNS(=O)(=O)c2ccc(O)c(C(=O)O)c2)nc1)C(=O)CSCc1ccccc1Cl` [(S)-5-({5-[1-Carboxymethyl-3-(2-chloro-benzylsulfanyl)-2-oxo-propylcarbamoyl]pyridin-2-ylmethyl}sulfamoyl)-2-hydroxy-benzoic Acid], for which the inhibition constant Ki at Caspase-1 stood at 1500 nM; on Caspase-2, 11000 nM; on Caspase-3, 30 nM; on Caspase-4, 38000 nM; at Caspase-6, 120 nM; at Caspase-7, 90 nM. Moreover, on Caspase-8, the Ki was 810 nM.

The values above are taken from BindingDB's records for doi:10.1021/jm020230j (Sunesis Pharmaceuticals, 2002).
